From patent EP1202975B1, “SUBSTITUTED POLYCYCLIC ARYL AND HETEROARYL PYRAZINONES USEFUL FOR SELECTIVE INHIBITION OF THE COAGULATION CASCADE” (Pharmacia Corporation, priority 1999, dated 2000)

Columns and labels:
[1] = biological target: T1, TF-VIIa (Homo sapiens, UniProt P08709); test: TF-VIIa Assay; format: biochemical; settings: for IC50: cells given as a plain number (IC50), read-out: IC50 or % Inhibition TF-VIIa (30 µM); for IC50 or % Inhibition TF-VIIa (30 µM): % inhibition at 30 µM
T1 construct: 2nM recombinant human factor VIIa; purchased American Diagnostica, Greenwich CT; host or cells: soluble TF made in house in E. coli
T1 sequence (P08709 213-466 limits assumed): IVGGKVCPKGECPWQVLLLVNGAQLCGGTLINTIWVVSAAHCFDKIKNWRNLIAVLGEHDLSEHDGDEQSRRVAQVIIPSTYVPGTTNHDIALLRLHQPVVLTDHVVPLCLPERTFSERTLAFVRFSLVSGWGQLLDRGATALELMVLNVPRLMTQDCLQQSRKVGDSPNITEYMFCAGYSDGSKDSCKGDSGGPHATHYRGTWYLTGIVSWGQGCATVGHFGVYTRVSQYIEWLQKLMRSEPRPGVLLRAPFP
T1 sequence (P08709 61-212 limits assumed): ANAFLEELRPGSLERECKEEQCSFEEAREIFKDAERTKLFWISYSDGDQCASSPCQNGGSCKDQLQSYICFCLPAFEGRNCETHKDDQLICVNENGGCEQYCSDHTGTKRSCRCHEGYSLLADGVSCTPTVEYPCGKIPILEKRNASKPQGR
T1 sequence (P13726 33-251 partner limits assumed): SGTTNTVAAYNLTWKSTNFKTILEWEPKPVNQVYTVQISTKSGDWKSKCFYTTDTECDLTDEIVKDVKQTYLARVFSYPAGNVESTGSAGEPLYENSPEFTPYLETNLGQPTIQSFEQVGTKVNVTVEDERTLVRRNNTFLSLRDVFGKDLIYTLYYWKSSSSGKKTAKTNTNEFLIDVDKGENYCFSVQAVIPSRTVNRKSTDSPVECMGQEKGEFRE

[2] = biological target: Human factor Xa (Homo sapiens, UniProt P00742); test: Xa Assay; settings: for IC50 or % Inhibition Factor Xa (30 µM): % inhibition at 30 µM; for IC50: read-out: IC50 or % Inhibition Factor Xa (30 µM), cells given as a plain number (IC50)
Chain of Human factor Xa (P00742 235-488 limits assumed): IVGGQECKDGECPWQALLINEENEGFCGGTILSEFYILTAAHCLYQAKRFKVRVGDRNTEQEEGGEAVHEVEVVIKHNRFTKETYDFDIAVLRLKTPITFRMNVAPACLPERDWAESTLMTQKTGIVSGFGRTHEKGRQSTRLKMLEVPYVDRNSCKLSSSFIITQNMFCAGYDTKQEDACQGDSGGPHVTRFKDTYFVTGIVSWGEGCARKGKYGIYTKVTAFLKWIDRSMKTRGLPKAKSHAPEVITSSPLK
Chain of Human factor Xa (P00742 41-179 limits assumed): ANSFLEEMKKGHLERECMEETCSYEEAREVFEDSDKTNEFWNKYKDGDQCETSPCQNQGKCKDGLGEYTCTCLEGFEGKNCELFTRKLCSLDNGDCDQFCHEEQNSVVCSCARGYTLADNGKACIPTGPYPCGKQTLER

**Q.** For N=C(N)c1ccc(CNC(=O)Cn2c(-c3cccc4ccccc34)c(Cl)nc(NCCc3ccccc3)c2=O)cc1 [compound 80], which IC50 [1] is on record?
**A.** Its IC50 is 1290 nM.

**Q.** And the “IC50 or % Inhibition Factor Xa (30 µM)” value [2]?
**A.** Its value is 29%@30.

**Q.** Which results are given for Cc1cccc(-c2c(Cl)nc(NCCc3ccccc3)c(=O)n2CC(=O)NCc2ccc(C(=N)N)cc2)c1 [compound 81]?
**A.** IC50 [1]: 1000 nM; IC50 or % Inhibition Factor Xa (30 µM) [2]: 33%@30

**Q.** How did the IC50 [1] turn out when N=C(N)c1ccc(CNC(=O)Cn2c(-c3ccc4ccccc4c3)c(Cl)nc(NCCc3ccccc3)c2=O)cc1 [compound 82] was run?
**A.** Its IC50 is 20000 nM.

**Q.** And the “IC50 or % Inhibition Factor Xa (30 µM)” value [2]?
**A.** Its value is 32%@30.

**Q.** For Cc1cccc(-c2cnc(NCCc3ccccc3)c(=O)n2CC(=O)NCc2ccc(C(=N)N)cc2)c1 [compound 83], which IC50 [1] is on record?
**A.** Its IC50 is 750 nM.

**Q.** And the IC50 [2]?
**A.** The IC50 was greater than 30000 nM.

**Q.** Cc1cccc(-c2cnc(NCCc3ccccc3)c(=O)n2CC(=O)NCc2ccc(C(=N)N)cc2)c1 [compound 84] was tested. Which IC50 [1] did it give?
**A.** Its IC50 is 3030 nM.

**Q.** And the IC50 [2]?
**A.** Its IC50 is greater than 30000 nM.

**Q.** Cc1cccc(-c2cnc(NCCc3ccccc3)c(=O)n2CC(=O)NCc2ccc(C(=N)N)cc2)c1 [compound 85] was tested. Which IC50 [1] did it give?
**A.** Its IC50 is 880 nM.

**Q.** What about the “IC50 or % Inhibition Factor Xa (30 µM)” value [2] of the same compound?
**A.** Its value is 42%@30.

**Q.** What does the source list for N=C(N)c1ccc(CNC(=O)Cn2c(-c3cccc(N)c3)c(Cl)nc(NCCc3ccccc3)c2=O)cc1 [compound 86]?
**A.** IC50 [1]: 70 nM; IC50 or % Inhibition Factor Xa (30 µM) [2]: 26%@30

**Q.** N=C(N)c1ccc(CNC(=O)Cn2c(-c3cccc(N)c3)c(Cl)nc(NCCc3cccc(Cl)c3)c2=O)cc1 [compound 87] was tested. Which IC50 [1] did it give?
**A.** The IC50 was 70 nM.

**Q.** What about the IC50 [2] of the same compound?
**A.** Its IC50 is greater than 30000 nM.

**Q.** For N=C(N)c1ccc(CNC(=O)Cn2c(-c3cccc(N)c3)c(Cl)nc(NCc3ccccc3)c2=O)cc1 [compound 88], which IC50 [1] is on record?
**A.** Its IC50 is 100 nM.

**Q.** What about the IC50 [2] of the same compound?
**A.** The IC50 was greater than 30000 nM.

**Q.** What does the source list for Nc1cccc(-c2c(Cl)nc(NC3CCC3)c(=O)n2CC(=O)NCCc2ccccc2)c1 [compound 89]?
**A.** IC50 or % Inhibition TF-VIIa (30 µM) [1]: 5%@30; IC50 or % Inhibition Factor Xa (30 µM) [2]: 5%@30

**Q.** What does the source list for N=C(N)c1ccc(CNC(=O)Cn2c(-c3cccc(N)c3)c(Cl)nc(NC3CCC3)c2=O)cc1 [compound 90]?
**A.** IC50 [1]: 20 nM; IC50 or % Inhibition Factor Xa (30 µM) [2]: 16%@30

**Q.** For N=C(N)NCCCC(NC(=O)Cn1c(-c2cccc(N)c2)c(Cl)nc(NCc2ccccc2)c1=O)C(=O)c1nccs1 (centres unmarked) [compound 91], which IC50 [1] is on record?
**A.** Its IC50 is 70 nM.

**Q.** What about the IC50 [2] of the same compound?
**A.** The IC50 was 7000 nM.

**Q.** N=C(N)c1ccc(CNC(=O)Cn2c(-c3cccc(N)c3)cnc(NC3CCC3)c2=O)cc1 [compound 92] was tested. Which IC50 [1] did it give?
**A.** The IC50 was 53 nM.

**Q.** What about the “IC50 or % Inhibition Factor Xa (30 µM)” value [2] of the same compound?
**A.** The value was 18%@30.

**Q.** Which results are given for CC(C)(C)Nc1nc(Cl)c(-c2cccc(N)c2)n(CC(=O)NCc2ccc(C(=N)N)cc2)c1=O [compound 93]?
**A.** IC50 [1]: 70 nM; IC50 [2]: > 30000 nM

**Q.** Which IC50 [1] does the source give for CN(C)Nc1nc(Cl)c(-c2cccc(N)c2)n(CC(=O)NCc2ccc(C(=N)N)cc2)c1=O [compound 94] here?
**A.** The IC50 was 40 nM.

**Q.** What about the IC50 [2] of the same compound?
**A.** Its IC50 is greater than 30000 nM.

**Q.** Which IC50 [1] does the source give for CNc1cccc(-c2c(Cl)nc(NC(C)C)c(=O)n2CC(=O)NCc2ccc(C(=N)N)cc2)c1 [compound 96] here?
**A.** The IC50 was 260 nM.

**Q.** And the IC50 [2]?
**A.** The IC50 was greater than 30000 nM.

**Q.** Which results are given for Cc1c(N)cccc1-c1c(Cl)nc(NC(C)C)c(=O)n1CC(=O)NCc1ccc(C(=N)N)cc1 [compound 97]?
**A.** IC50 [1]: 40 nM; IC50 [2]: > 30000 nM

**Q.** For Cc1c(N)cccc1-c1cnc(NC(C)C)c(=O)n1CC(=O)NCc1ccc(C(=N)N)cc1 [compound 98], which IC50 [1] is on record?
**A.** The IC50 was 90 nM.

**Q.** And the “IC50 or % Inhibition Factor Xa (30 µM)” value [2]?
**A.** Its value is 10%@30.

**Q.** Which results are given for Nc1cccc(-c2c(Cl)nc(NC3CCC3)c(=O)n2CC(=O)NCc2ccccc2)c1 [compound 99]?
**A.** IC50 or % Inhibition TF-VIIa (30 µM) [1]: 6%@30; IC50 or % Inhibition Factor Xa (30 µM) [2]: 8%@30
